Structures can show the parent of a compound that is named as a salt. Where two headings read alike, the source gives them in different places.
Columns and labels:
primary rat microglia [1] = assay: Cell toxicity (dead cells, size <150 μm2) in coated fibrin (cFib) assay; details: primary microglia HTS, fibrin stimulation, cell size <150 μm2 as marker of toxicity;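 note: share of dead cells sized under 150 µm2 at 10 µM in fibrin-stimulated microglia HTS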
[2] = tested on: fibrin- and LPS-induced microglia activation; assay: cells; format: cell-based, rat; details: classification by fibrin and LPS inhibition in HTS
[3] = tested on: fibrin-induced microglia activation; assay: Image-based assay of fibrin-induced microglia activation (HTS and dose response); format: cell-based, rat; details: primary microglia HTS, fibrin stimulation, cell size >800 μm2 as marker of activation; for inhibition at 10 µM: Rattus norvegicus, Microglia, read-out: Fibrin % inhibition
primary rat microglia [4] = tested on: primary rat microglia
[5] = tested on: LPS-induced microglia activation; assay: Image-based assay of LPS-induced microglia activation (HTS and dose response); format: cell-based, rat; details: for inhibition at 10 µM: Rattus norvegicus, Microglia, 48 h, read-out: LPS % inhibition

Row | SMILES | Fibrin % cell toxicity (primary rat microglia [1]) [%] | Quadrant (FIG. 5b) [2] | inhibition at 10 µM [3] [%] | LPS % cell toxicity (primary rat microglia [4]; rat) [%] | inhibition at 10 µM [5] [%] | Fibrin % inhibition [3] [%] | LPS % cell toxicity (primary rat microglia [4]) [%] | LPS % inhibition [5] [%]
1 | NC(=O)c1cnccn1 [Pyrazinamide] | 0 | Q4 | -20 | 0 | 13 | – | – | –
2 | CN(C)C(=O)Oc1ccc[n+](C)c1 [Pyridostigmine] | 1 | Q4 | 4 | 0 | 9 | – | – | –
3 | CCc1nc(N)nc(N)c1-c1ccc(Cl)cc1 [Pyrimethamine] | 1 | Q4 | -11 | 1 | 12 | – | – | –
4 | CCC1(CC)C(=O)C=CNC1=O [Pyrithyldione] | 1 | Q4 | -24 | 0 | 9 | – | – | –
5 | Cc1ncc(CSSCc2cnc(C)c(O)c2CO)c(CO)c1O [Pyritinol] | 1 | Q4 | -15 | 0 | 4 | – | – | –
6 | COc1ccc2nc3cc(Cl)ccc3c(Nc3cc(CN4CCCC4)c(O)c(CN4CCCC4)c3)c2n1.O=P(O)(O)O.O=P(O)(O)O.O=P(O)(O)O.O=P(O)(O)O [Pyronaridine Tetraphosphate] | 1 | Q4 | – | – | – | 16 | 0 | 9
7 | CCOC(=O)[C@H](CCc1ccccc1)N[C@@H](C)C(=O)N1Cc2ccccc2C[C@H]1C(=O)O [Quinapril] | 1 | Q4 | -24 | 0 | 13 | – | – | –
8 | C[C@H](N[C@@H](CCc1ccccc1)C(=O)O)C(=O)N1Cc2ccccc2C[C@H]1C(=O)O [Quinaprilat] | 1 | Q4 | -5 | 0 | 5 | – | – | –
9 | C#C[C@]1(O)CC[C@H]2[C@@H]3CCc4cc(OC5CCCC5)ccc4[C@H]3CC[C@@]21C [Quinestrol] | 0 | Q4 | 15 | 0 | 24 | – | – | –
10 | C=C[C@H]1CN2CC[C@H]1C[C@H]2[C@H](OC(=O)OCC)c1ccnc2ccc(OC)cc12 [Quinine Ethyl Carbonate] | 0 | Q4 | -21 | 0 | -11 | – | – | –
11 | O=C(O)/C=C\C(=O)O.O=C(O)/C=C\C(=O)O.c1ccc2nc(N3CCNCC3)ccc2c1 [Quipazine Dimaleate, Quipazine Maleate] | 1 | Q4 | – | – | – | −18 | 0 | 9
12 | COCCCOc1ccnc(C[S+]([O-])c2nc3ccccc3[nH]2)c1C (stereo not shown) [Rabeprazole] | 0 | Q4 | -46 | 0 | 3 | – | – | –
13 | CC(=O)SCC(Cc1ccccc1)C(=O)NCC(=O)OCc1ccccc1 (stereo not shown) [Racecadotril] | 1 | Q4 | -51 | 0 | 18 | – | – | –
14 | CCC(=O)NCC[C@@H]1CCc2ccc3c(c21)CCO3 [Ramelteon] | 0 | Q4 | 25 | 0 | 20 | – | – | –
15 | Cc1c(NC(C)C)c(=O)n(-c2ccccc2)n1C [Ramifenazone] | 0 | Q4 | -11 | 0 | 9 | – | – | –
16 | CCOC(=O)[C@H](CCc1ccccc1)N[C@@H](C)C(=O)N1[C@H](C(=O)O)C[C@@H]2CCC[C@@H]21 [Ramipril] | 0 | Q4 | 8 | 0 | 16 | – | – | –
17 | CNC(=C[N+](=O)[O-])NCCSCc1ccc(CN(C)C)o1 [Ranitidine] | 1 | Q4 | 35 | 0 | 15 | – | – | –
18 | CCN1CCC[C@H]1CNC(=O)c1c(OC)ccc(Br)c1OC [Remoxipride] | 1 | Q4 | -14 | 0 | 3 | – | – | –

Row | SMILES | Fibrin % cell toxicity (primary rat microglia [1]) [%] | Quadrant (FIG. 5b) [2] | inhibition at 10 µM [3] [%] | LPS % cell toxicity (primary rat microglia [4]; rat) [%] | inhibition at 10 µM [5] [%] | Fibrin % inhibition [3] [%] | LPS % cell toxicity (primary rat microglia [4]) [%] | LPS % inhibition [5] [%]
19 | CCOc1cc(CC(=O)N[C@@H](CC(C)C)c2ccccc2N2CCCCC2)ccc1C(=O)O [Repaglinide] | 1 | Q4 | -14 | 0 | 18 | – | – | –
20 | CC(=O)Oc1cccc(O)c1 [Resorcinol Monoacetate] | 1 | Q4 | 12 | 1 | 26 | – | – | –
21 | CC(=O)OC/C=C(C)/C=C/C=C(C)/C=C/C1=C(C)CCCC1(C)C [Retinyl Acetate] | 1 | Q4 | 3 | 0 | 15 | – | – | –
22 | NC[C@H]1O[C@H](O[C@H]2[C@H](O[C@@H]3O[C@H](CO)[C@@H](O)[C@H]3O)[C@@H](O)[C@H](N)C[C@@H]2N)[C@H](N)[C@@H](O)[C@@H]1O.O=S(=O)(O)O [Ribostamycin Sulfate] | 0 | Q4 | – | – | – | −16 | 0 | 13
23 | CO[C@H]1/C=C/O[C@@]2(C)Oc3c(C)c(O)c4c(O)c(c(/C=N/N5CCN(C6CCCC6)CC5)c(O)c4c3C2=O)NC(=O)/C(C)=C\C=C\[C@H](C)[C@H](O)[C@@H](C)[C@@H](O)[C@@H](C)[C@H](OC(C)=O)[C@@H]1C [Rifapentine] | 1 | Q4 | -23 | 0 | -7 | – | – | –
24 | CO[C@H]1/C=C/O[C@@]2(C)Oc3c(C)c(O)c4c(O)c(c5c(nc6cc(C)ccn65)c4c3C2=O)NC(=O)/C(C)=C\C=C\[C@H](C)[C@H](O)[C@@H](C)[C@@H](O)[C@@H](C)[C@H](OC(C)=O)[C@@H]1C [Rifaximin] | 0 | Q4 | 6 | 2 | 22 | – | – | –
25 | O=P(O)(O)C(O)(Cc1cccnc1)P(=O)(O)O [Risedronate] | 1 | Q4 | 47 | 0 | 15 | – | – | –
26 | CN(C)CCc1c[nH]c2ccc(Cn3cncn3)cc12 [Rizatriptan] | 1 | Q4 | -9 | 0 | 10 | – | – | –
27 | C=CC[N+]1([C@H]2C[C@H]3[C@@H]4CC[C@H]5C[C@H](O)[C@@H](N6CCOCC6)C[C@]5(C)[C@H]4CC[C@]3(C)[C@H]2OC(C)=O)CCCC1 [Rocuronium] | 1 | Q4 | -22 | 0 | 5 | – | – | –
28 | CS(=O)(=O)c1ccc(C2=C(c3ccccc3)C(=O)OC2)cc1 [Rofecoxib] | 0 | Q4 | 15 | 0 | 14 | – | – | –
29 | COc1ccc(C2CNC(=O)C2)cc1OC1CCCC1 (stereo not shown) [Rolipram] | 0 | Q4 | 11 | 0 | 11 | – | – | –
30 | CN(C)[C@@H]1C(O)=C(C(=O)NCN2CCCC2)C(=O)[C@@]2(O)C(O)=C3C(=O)c4c(O)cccc4[C@@](C)(O)[C@H]3C[C@@H]12 [Rolitetracycline] | 1 | Q4 | 4 | 0 | 9 | – | – | –
31 | Cn1c([N+](=O)[O-])cnc1COC(N)=O [Ronidazole] | 1 | Q4 | 31 | 0 | 20 | – | – | –
32 | O=[N+]([O-])c1cc([As](=O)(O)O)ccc1O [Roxarsone] | 1 | Q4 | – | 1 | – | −18 | – | 17
33 | CC(=O)OCC(=O)NCCCOc1cccc(CN2CCCCC2)c1 [Roxatidine acetate] | 1 | Q4 | 22 | 0 | 6 | – | – | –
34 | CC[C@H]1OC(=O)[C@H](C)[C@@H](O[C@H]2C[C@@](C)(OC)[C@@H](O)[C@H](C)O2)[C@H](C)[C@@H](O[C@@H]2O[C@H](C)C[C@H](N(C)C)[C@H]2O)[C@](C)(O)C[C@@H](C)/C(=N\OCOCCOC)[C@H](C)[C@@H](O)[C@]1(C)O [Roxithromycin] | 0 | Q4 | -4 | 1 | 17 | – | – | –
35 | CN1CCN(c2c(F)cc3c(=O)c(C(=O)O)cn4c3c2SCC4)CC1 [Rufloxacin Hydrochloride] | 1 | Q4 | -3 | 0 | 21 | – | – | –

— patent publication US20210330611A1, “THERAPY FOR NEUROLOGICAL DISEASES/DISORDERS” (priority 2020, published 2021)
